# Source: PMC8338929, “Acetylation turns leucine into a drug by membrane transporter switching” (Scientific Reports, 2021)
# What was measured:
# LAT1 = conditions: read-out: Km LAT1; quoted in discussion, no reference given; cited from earlier work
# [1] = N-acetyl-leucine metabolism in pooled human liver S9 fraction (LC-MS); assay type: in vitro ADME; conditions: 1 µM initial concentration, 0-60 min
# Procedure: (§3) V0 = Vmax. [S]/Km + [S], where V0 is initial velocity, [S] is substrate concentration, Vmax is maximum velocity and Km is substrate concentration at half Vmax. All fitting was performed using GraphPad Prism 8.4 software (GraphPad Software Inc). No weighting scheme was applied.
# [2] = N-acetyl-leucine metabolism in pooled mouse liver S9 fraction (LC-MS); assay type: in vitro ADME; conditions: 1 µM initial concentration, 0-60 min
# Procedure: as §3
# human MCT1 (SLC16A1) [3] = biological target: T1, human MCT1 (SLC16A1) (Homo sapiens, UniProt P53985); assay: MCT1-mediated cellular uptake in transfected MDCK-II cells; assay type: cell-based; conditions: 1 min, room temperature, Michaelis-Menten fit
# T1 construct: host or cells: MDCK-II
# T1 sequence (P53985 1-500): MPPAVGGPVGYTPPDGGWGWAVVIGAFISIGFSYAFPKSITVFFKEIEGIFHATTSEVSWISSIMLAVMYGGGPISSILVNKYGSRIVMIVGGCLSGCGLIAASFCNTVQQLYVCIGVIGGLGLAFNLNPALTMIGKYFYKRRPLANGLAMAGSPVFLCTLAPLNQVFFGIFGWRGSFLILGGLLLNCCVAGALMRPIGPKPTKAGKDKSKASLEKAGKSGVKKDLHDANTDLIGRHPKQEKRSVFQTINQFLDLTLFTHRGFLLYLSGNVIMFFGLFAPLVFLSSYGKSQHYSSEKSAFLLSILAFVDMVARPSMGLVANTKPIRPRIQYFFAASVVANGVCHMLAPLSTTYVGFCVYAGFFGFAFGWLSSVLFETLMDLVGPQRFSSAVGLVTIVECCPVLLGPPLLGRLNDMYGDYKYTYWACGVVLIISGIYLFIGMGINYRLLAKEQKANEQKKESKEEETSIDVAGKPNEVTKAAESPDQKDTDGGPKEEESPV
# Procedure: (§1) Transport studies with human PepT1 (SLC15A1), LAT1 (SLC7A5) and MCT1 (SLC16A1) were conducted in MDCK-II cells expressing the human transporter or control cells expressing a vector with Green Fluorescence Protein. Cells were transfected using a proprietary, transient transfection system (OPTI-EXPRESSION Technology, BioIVT). The results from the control cells were used to correct for substrate permeation by routes other than the transporter being investigated in the study. […] Specifically, Net Transporter Mediated Substrate Uptake (pmol/min/cm^2) = (Cellular accumulation in the presence of the transporter) − (Mean cellular accumulation in the absence of the transporter). MDCK-II cells were maintained in DMEM with low glucose and 10% FBS. Cells were used at passages up to 40 were seeded at 60,000 ± 10,000 cells/well on 96-well plates approximately 24 h before transfection, and transport assays were performed approximately 48 h after transfection. Transport studies in MDCK-II cells were conducted in 96-well insert plates with permeable membrane (0.4 µm) and receiver tray (Millipore MultiScreen Filter 96-well).
# (§2) Transport studies with PepT1 were conducted in 96-well cell culture plate with wells containing a monolayer of MDCK-II cells grown on a permeable support and a corresponding 96-well receiver tray. Cell plates are maintained at 37 °C in 5% CO2 atmosphere prior to initiation of the transport experiment. Pre-incubation was conducted in HBSS, pH 7.4. The transport experiments were conducted in HBSS with Bis–Tris, pH 5.5, without phenol red. Both pre-incubation and incubation were conducted at 37 °C. All final assay solutions of probe substrate, reference inhibitor or test article contain 0.5% (v/v) DMSO (vehicle control). The culture plate insert […] was washed with warm HBSS three times and then blotted dry. The culture plate wells […] were washed with warm HBSS three times. […] Then a 30-µL sample was taken and mixed with 200 µL of scintillation fluid and scintillation counted (1450 Microbeta, Perkin-Elmer). […]
# human MCT1 (SLC16A1) [4] = biological target: T1, human MCT1 (SLC16A1); assay: Inhibition of MCT1 uptake of probe substrate 2-thiophene glyoxylate in MDCK-II cells; assay type: cell-based
# Procedure: as §1
# as §2, with “times. 100 µL of 37 °C HBSS pH 7.4 pre-incubation buffer to the apical compartment as follows: for the probe substrate transport assay, the HBSS contains vehicle; for the reference inhibition assay, the HBSS contains the reference inhibitor at the required concentration; for the test article assays, the HBSS in each well contains test compound at the specified concentration. The plates were incubated at 37 °C with orbital shaking at approximately 60 rpm for the pre-incubation (30 min), aspirated and then 100 µL of the experimental buffer was added.” for “times.”
# [5] = substrate: CC(=O)N[C@@H](CC(C)C)C(=O)O; assay: cells, lysate or membranes; conditions: Michaelis-Menten fit
molecule,measurement,setting,value
CC(C)C[C@H](N)C(=O)O [L-leucine],Km,LAT1,200 µM
[2H]C([2H])([2H])C([2H])(C([2H])([2H])[2H])C([2H])([2H])C([2H])(NC(C)=O)C(=O)O (racemic) [N-acetyl-DL-[^2H10]leucine],"disappearance: asymptote as % of the initial concentration, human liver S9",[1],~50%
same,"disappearance: asymptote as % of the initial concentration, mouse liver S9",[2],~50%
CC(=O)N[C@H](CC(C)C)C(=O)O [N-acetyl-D-leucine],Km,human MCT1 (SLC16A1) [3],1000 µM
same,Vmax MCT1 uptake,human MCT1 (SLC16A1) [3],80
same,Ki,"human MCT1 (SLC16A1) [4]; Cheng-Prusoff equation from IC50, competitive inhibition assumed, read-out: affinity (Ki) MCT1",1.6 mM
same,IC50,"human MCT1 (SLC16A1) [4]; probe 2-thiophene glyoxylate 500 µM, positive control phloretin 500 µM",11 mM
Human OAT3 (SLC22A8) (Homo sapiens) (protein) MTFSEILDRVGSMGHFQFLHVAILGLPILNMANHNLLQIFTAATPVHHCRPPHNASTGPWVLPMGPNGKPERCLRFVHPPNASLPNDTQRAMEPCLDGWVYNSTKDSIVTEWDLVCNSNKLKEMAQSIFMAGILIGGLVLGDLSDRFGRRPILTCSYLLLAASGSGAAFSPTFPIYMVFRFLCGFGISGITLSTVILNVEWVPTRMRAIMSTALGYCYTFGQFILPGLAYAIPQWRWLQLTVSIPFFVFFLSSWWTPESIRWLVLSGKSSKALKILRRVAVFNGKKEEGERLSLEELKLNLQKEISLAKAKYTASDLFRIPMLRRMTFCLSLAWFATGFAYYSLAMGVEEFGVNLYILQIIFGGVDVPAKFITILSLSYLGRHTTQAAALLLAGGAILALTFVPLDLQTVRTVLAVFGKGCLSSSFSCLFLYTSELYPTVIRQTGMGVSNLWTRVGSMVSPLVKITGEVQPFIPNIIYGITALLGGSAALFLPETLNQPLPETIEDLENWSLRAKKPKQEPEVEKASQRIPLQPHGPGLGSS,Km,"[5]; other: HEK-293 cells, pH 7.4",7800 µM
Human OAT1 (SLC22A6) (Homo sapiens) (protein) MAFNDLLQQVGGVGRFQQIQVTLVVLPLLLMASHNTLQNFTAAIPTHHCRPPADANLSKNGGLEVWLPRDRQGQPESCLRFTSPQWGLPFLNGTEANGTGATEPCTDGWIYDNSTFPSTIVTEWDLVCSHRALRQLAQSLYMVGVLLGAMVFGYLADRLGRRKVLILNYLQTAVSGTCAAFAPNFPIYCAFRLLSGMALAGISLNCMTLNVEWMPIHTRACVGTLIGYVYSLGQFLLAGVAYAVPHWRHLQLLVSAPFFAFFIYSWFFIESARWHSSSGRLDLTLRALQRVARINGKREEGAKLSMEVLRASLQKELTMGKGQASAMELLRCPTLRHLFLCLSMLWFATSFAYYGLVMDLQGFGVSIYLIQVIFGAVDLPAKLVGFLVINSLGRRPAQMAALLLAGICILLNGVIPQDQSIVRTSLAVLGKGCLAASFNCIFLYTGELYPTMIRQTGMGMGSTMARVGSIVSPLVSMTAELYPSMPLFIYGAVPVAASAVTVLLPETLGQPLPDTVQDLESRWAPTQKEAGIYPRKGKQTRQQQEHQKYMVPLQASAQEKNGL,Km,"[5]; other: HEK-293 cells, pH 7.4",11000 µM
human MCT1 (SLC16A1) (Homo sapiens) (protein) MPPAVGGPVGYTPPDGGWGWAVVIGAFISIGFSYAFPKSITVFFKEIEGIFHATTSEVSWISSIMLAVMYGGGPISSILVNKYGSRIVMIVGGCLSGCGLIAASFCNTVQQLYVCIGVIGGLGLAFNLNPALTMIGKYFYKRRPLANGLAMAGSPVFLCTLAPLNQVFFGIFGWRGSFLILGGLLLNCCVAGALMRPIGPKPTKAGKDKSKASLEKAGKSGVKKDLHDANTDLIGRHPKQEKRSVFQTINQFLDLTLFTHRGFLLYLSGNVIMFFGLFAPLVFLSSYGKSQHYSSEKSAFLLSILAFVDMVARPSMGLVANTKPIRPRIQYFFAASVVANGVCHMLAPLSTTYVGFCVYAGFFGFAFGWLSSVLFETLMDLVGPQRFSSAVGLVTIVECCPVLLGPPLLGRLNDMYGDYKYTYWACGVVLIISGIYLFIGMGINYRLLAKEQKANEQKKESKEEETSIDVAGKPNEVTKAAESPDQKDTDGGPKEEESPV,Km,"[5]; other: MDCK-II cells, 1 min, room temperature",3000 µM
